Reference: article PMC8234462, “Novel Cyclophilin Inhibitor Decreases Cell Proliferation and Tumor Growth in Models of Hepatocellular Carcinoma” (Cancers, 2021)
pIC50: −log10 of the molar value. Read-outs that look alike come from different tables or passages of the source.

How the values were obtained:
[1] = tested on: HEPG2; experiment: Mitochondrial membrane potential (DiOC(6)3) and PI fluorocytometry; type: cell-based, human; conditions: 72 h, 20, 50 or 100 nM
Experimental: (§1) HEPG2 and HUH7 cells were seeded at 1.5 × 10^5 cells/well and 1 × 10^5 cells/well, respectively, 24 h prior to treatment. After 72 h of treatment (0, 20, 50 or 100 nM of NV651), supernatant and trypsinized cells were collected and stained with propidium iodide (PI) (Thermo Fisher Scientific, Waltham, MA, USA) at a concentration of 1 μg/mL to evaluate the plasma membrane integrity; due to the lack of cell permeability, only dead cells are able to incorporate it. In addition, changes in the mitochondrial membrane potential were evaluated by 3,3′-dihexyloxacarbocyanine iodide (DiOC(6)3)(Molecular Probes–Invitrogen, Waltham, MA, USA) staining at a concentration of 40 nM.
(§2) Data was acquired with FACSverse Instrument and analyzed with FCS Express 6 Flow Research.

[2] = tested on: HUH7; experiment: as above; type: cell-based, human; conditions: 72 h, 20, 50 or 100 nM
Experimental: as §1, §2

[3] = Pharmacokinetics single oral administration, blood and liver; type: in vivo; conditions: CD1 mice, 10 mg/kg PO; for Tmax: male, mouse
Experimental: These experiments were performed by Shanghai ChemPartner Co., Ltd. (Shanghai, China) following the guidance described above. Twelve CD1 male mice with a weight between 28–30 g were purchased from SLAC Laboratory Animal Co. Ltd. (Shanghai, China). NV651 was diluted in 5% ethanol, 5% Cremophor EL and 90% saline. A single 10-mg/kg dose of NV651 was given orally (PO). […] At the selected time points, 30 µL of the blood samples were taken via face glass insert or cardiac puncture and placed into K2EDTA tubes. Tissues were terminal-collected at the designated time points. Thirty microliters of blood or liver samples were mixed with 100-µL Pierce Acetonitrile (ACN, Thermo Fisher Scientific, Waltham, MA, USA) containing 20-ng/mL IS (702) used as the internal standard. An aliquot of 10-µL supernatant was injected for LC-MS/MS analysis using LCMSMS-003 (API4000).

[4] = Stability of NV651 solution in 25% buffered HPbCD; type: physicochemical; conditions: stored at 4 °C
Experimental: Twenty-five percent buffered Hydroxy Propyl beta Cyclodextrin (HPbCD) was prepared from Hydroxy Propyl beta Cyclodextrin (Roquette, Lestrem, France), EDTA solution and phosphate buffer at a pH of 7.4, filtered with a […] (VWR, Cat# 28145-483, Radnor, PA, USA) and stored at 4 °C. NV651 was prepared at a concentration of 10 mg/kg with 25% buffered HPbCD (vehicle). NV651 solution was sonicated for 30 min in a water bath sonicator (Bioruptor, Diagenode, Denville, NJ, USA) and shaken for up to an hour, followed by a secondary sterilization with a 0.2-µm filter. NV651 solution was stored at 4 °C up to 2 weeks, with stability confirmed up to 3 weeks.

[5] = tested on: LIXC-003; experiment: Cell proliferation assay: Acumen; type: cell-based; conditions: Homo sapiens, 168 h, 7 days, read-out: Abs IC50 growth inhibition
Experimental: (§3) Compound screening and comparison of the antiproliferative effect of NV651 and sorafenib were performed by Shanghai ChemPartner Co., Ltd. (Shanghai, China). Cells were seeded in a 96-well plate at the following concentrations: LIXC-003 400 cells/well, LIXC-004 1000 cells/well, LIXC-086 5000 cells/well, LIXC-066 1250 cells/well, LIXC-012 2000 cells/well, LIXC-006 1250 cells/well, HEPG2 1000 cells/well, HUH7 2000 cells/well and Hep3B2.1-7-Luc 1000 cells/well. Cells were treated with either sorafenib or NV651 at 0.004, 0.011, 0.034, 0.103, 0.309, 0.926, 2.778, 8.333, 25 µM or an equivalent volume with DMSO.
(§4) After 7 days, cells were trypsinized and collected. Fifty microliters of cell suspension were added to 50 µL of 2-µM Calcein AM (Invitrogen, Cat# C3099, Waltham, MA, USA) diluted in HBSS and placed in a black-walled 96-well plate. The plate was left for 30 min at room temperature, followed by a scan with Acumen eX3.
(§5) Growth inhibition for direct cell counting (%) by Acumen was calculated as:(1) 100−100∗Experimental count−Blank/DMSO count −Blank

[6] = tested on: LIXC-066; experiment: Cell proliferation assay: Acumen; type: cell-based; conditions: Homo sapiens, 168 h, 7 days, read-out: Abs IC50 growth inhibition
Experimental: as §3, §4, §5

[7] = tested on: HUH7; experiment: Cell proliferation assay: Acumen; type: cell-based; conditions: Homo sapiens, Huh-7, 168 h, 7 days, read-out: Abs IC50 growth inhibition
Experimental: as §3, §4, §5

[8] = tested on: Monocytes/Macrophages; experiment: Cytotoxicity, CellTiter Glo; type: cell-based; conditions: Homo sapiens, 168 h, 7 days of treatment, read-out: IC50 (50% reduction in cell viability)
Experimental: (§6) The evaluation of the off-target effects of NV651 was performed by ImQuest BioSciences Inc. (Frederick, MD, USA) by analyzing the cytotoxicity in a panel of primary cells. NV651 was evaluated at a concentration of 30 µM and five serial half-logarithmic dilutions in triplicate. The positive control compounds for each cell type were purchased from Sigma-Aldrich (St. Louis, MO, USA) and were as follows:
(§7) CellTiter Glo was performed to evaluate cell viability. CellTiter Glo Luminescent Cell Viability Assay (Promega, Madison, WI, USA) was performed according to the manufacturer’s instructions.

[9] = tested on: iPS neurons; experiment: Cytotoxicity, CellTiter Glo; type: cell-based; conditions: Homo sapiens, Neuron, 72 h, 3 days of treatment, read-out: IC50 (50% reduction in cell viability)
Experimental: as §6, §7

[10] = tested on: Hepatocytes; experiment: Cytotoxicity, CellTiter Glo; type: cell-based; conditions: Homo sapiens, Hepatocyte, 48 h, 2 days of treatment, read-out: IC50 (50% reduction in cell viability)
Experimental: as §6, §7

[11] = tested on: HEPG2; experiment: Phospho-Histone 3 (PH3) staining; type: cell-based, human; conditions: 10 or 100 nM, 24 h
Experimental: For the quantification of mitotic cells, HEPG2 cells were seeded in a 6-well plate at a concentration of 1.5 × 10^5 cells/well and HUH7 at 1 × 10^5 cells/well in a 6-well plate. Both cells lines were treated with 10 or 100 nM of NV651 or the equivalent volume of DMSO. Samples were fixed for HEPG2 at 24 h and for HUH7 at 48 h of treatment, as described above. Permeabilization was performed by adding 0.25% Tween20 (Sigma-Aldrich, Cat# P1379-500ML, St. Louis, MO, USA) diluted in PBS. Samples were stained with primary antibody mouse anti-PH3 (Merck Millipore, Cat# 05-806, Burlington, MA, USA) at a dilution of 1/100 overnight at 4 °C and with the secondary antibody goat anti-Mouse IgG AF488 conjugated (Life technologies, Cat# A11029, Carlsbad, CA, USA) for 1 h at room temperature. After washing, 1-µg/mL DAPI was added for the staining of the DNA content.
as §2

SMILES: CC(=O)CCC1C(=O)NC(C(C)C)C(=O)NC(Cc2cc(O)cc(F)c2)C(=O)N2CCCC(N2)C(=O)OC(C(C)=CC=CC(=O)OC(C)(C)C)CC=CC=CC(O)C(C)C1O (stereo not shown) [NV651]
- changes in mitochondrial membrane potential (DiOC6(3)) and plasma membrane integrity (PI) [1]: did not show any significant differences
- changes in mitochondrial membrane potential (DiOC6(3)) and plasma membrane integrity (PI) [2]: did not show any significant differences
- level in liver relative to blood ([3]; 24 h after treatment): three-fold higher level in the liver than blood
- Tmax ([3]; blood, read-out: Tmax in blood): 1 h
- Tmax ([3]; liver, read-out: Tmax in liver): 1 h
- stability of NV651 solution [4]: up to 3 weeks
- pIC50 [5]: 8.05
- pIC50 [6]: 6.77
- pIC50 [7]: 8.52
- pIC50 [8]: 4.61
- pIC50 [9]: < 4.52
- pIC50 [10]: < 4.52
- fraction of cells positive for the phosphorylation of histone 3 (PH3) [11]: increased
